The values below come from US12435104B2, “Cyclic dinucleotides as sting agonists” (BEIGENE, LTD., priority 2019, dated 2025).

Each structure is given as a SMILES string. Counter-ions that a name gives are not always drawn.

One assay relates to STING in THP1-Dual Cells. Put plainly: STING cellular assay in THP1-Dual cells (ISG54-Lucia luciferase reporter). To be noted: Homo sapiens, 24 h, read-out: Cellular activity EC50 in THP1-Dual Cells.
Assay [1] relates to hSTING-R232 in THP1-Dual KI-hSTING-R232 Cells. Put plainly: STING cellular assay in THP1-Dual KI-hSTING-R232 cells (Lucia luciferase reporter). To be noted: Homo sapiens, THP1-Dual KI-hSTING-R232, 24 h, read-out: Cellular activity EC50 in THP1-Dual KI-hSTING-R232 Cells.

`Nc1nc2c(ncn2[C@@H]2O[C@@H]3COP(=O)(O)O[C@H]4[C@H](n5cnc6c(N)ncnc65)O[C@H](COP(=O)(O)O[C@H]3[C@H]2O)[C@]42CC2(F)F)c(=O)[nH]1` [Example 1, 2-amino-9-((1R,5′S,7′R,8′R,12a′R,14′R,15′R,15a′S)-7′-(6-amino-9H-purin-9-yl)-2,2-difluoro-2′,10′,15′-trihydroxy-2′,10′-dioxidooctahydro-12′H-spiro[cyclopropane-1,16′-[5,8]methanofuro[3,2-1][1,3,6,9,11]pentaoxa[2,10]diphosphacyclotetradecin]-14′-yl)-1,9-dihydro-6H-purin-6-one triethylamine salt]: the EC50 was 2680 nM in the assay on STING in THP1-Dual Cells and 3210 nM in assay [1].
The matching figures for `Nc1nc2c(ncn2[C@@H]2O[C@@H]3CO[P@@](O)(=S)O[C@H]4[C@H](n5cnc6c(N)ncnc65)O[C@H](COP(O)(=S)O[C@H]3[C@H]2F)[C@]42CC2(F)F)c(=O)[nH]1` (stereo partly drawn) [Example 2, 2-amino-9-((1R,5′S,7′R,8′R,10′R,12a′R,14′R,15′R,15a′R)-7′-(6-amino-9H-purin-9-yl)-2,2,15′-trifluoro-2′,10′-dihydroxy-2′,10′-disulfidooctahydro-12′H-spiro[cyclopropane-1,16′-[5,8]methanofuro[3,2-1][1,3,6,9,11]pentaoxa[2,10]diphosphacyclotetradecin]-14′-yl)-1,9-dihydro-6H-purin-6-one]: 1760 nM and 2320 nM.
